From patent US7772434B2, “Crystalline form of a β2 adrenergic receptor agonist” (Theravance, Inc., priority 2003, dated 2010)
Counter-ions that a name gives are not always drawn.

Columns and labels:
[1] = Solid state stability testing (storage at elevated temperature and humidity); format: physicochemical
Procedure: Samples (250 mg each) of the monoHCl salt of Examples 9 and 10 were stored at 40° C. and 75% relative humidity in open containers and in closed containers. Additional samples (100 mg each) of the monoHCl salt were stored at 50° C. in closed containers. […] Water percentage of the samples stored at 40° C. was less than 0.25% after two and four weeks of storage.
The differential scanning calorimetry trace of Example 14, shown in FIG. 2 was obtained with a TA instruments model DSC2010. Samples were placed in sealed aluminum pans for analysis with an empty pan serving as the reference. Samples were equilibrated at 30° C. and heated at 5° C. per minute to a temperature of 300° C. The instrument was calibrated with an indium standard.
Thermogravimetric analysis was conducted using a TA instruments model Q50. Samples were weighed in aluminum pans and heated from 50° C. to 300° C. at a rate of 10° C./min.
HPLC analysis was conducted using a MAC MOD Ace-5, C18, 25 cm×4.6 mm, 5 μm column, equilibrated at 30° C. The mobile phases used were: A: 0.1% TFA in 98:2 water:acetonitrile; and B: 0.1% TFA in 10:90 water:acetonitrile. Detection was by UV absorbance at 244 nm. The initial condition was 6% phase B. A flow rate of 1.0 mL/min and gradients of 6 to 30% B over 25 min, 30% to 60% B in 10 min and 60% to 100% B in 2 min were utilized. The monoHCl salt of compound 1 gave a retention time of 19.1 min.
Water content was determined by coulometric Karl Fischer titration using a Brinkman Metrohm Karl Fischer Model 831 coulometer.

[2] = Hygroscopicity / deliquescence on exposure to the atmosphere at high relative humidity; format: physicochemical; details: exposed to the atmosphere for prolonged periods at high relative humidity
[3] = all storage conditions: 40° C. and 75% relative humidity in open and closed containers, 50° C. in closed containers, after four weeks

Question: What does the source list for `O=CNc1cc([C@@H](O)CNCCc2ccc(NC[C@H](O)c3ccccc3)cc2)ccc1O` [monohydrochloride salt of compound 1, N-{2-[4-((R)-2-hydroxy-2-phenylethylamino)phenyl]ethyl}-(R)-2-hydroxy-2-(3-formamido-4-hydroxyphenyl)ethylamine monohydrochloride]?
Answer: analysis by DSC and TGA [1, 3]: no detectable differneces; change in the appearance of the material [1, 3]: no observable change; chemical degradation, analysis by HPLC [1, 3]: no detectable chemical degradation; thermal stability ([1]; at elevated temperatures): thermally stable; analysis by DSC ([1]; four weeks at 40° C. and 75% humidity in open and closed containers and at 50° C. in a closed container): no detectable difference; chemical degradation, analysis by HPLC ([1]; four weeks at 40° C. and 75% humidity in open and closed containers and at 50° C. in a closed container, summary statement): no appreciable chemical degradation; Water percentage of the samples ([1]; samples stored at 40° C. (75% relative humidity), after two and four weeks of storage, Karl Fischer): less than 0.25%; hygroscopicity / deliquescence [2]: neither hygroscopic nor deliquescent
